28 compounds from US8163779B2, “Glucokinase activators” (Takeda San Diego, Inc., priority 2006, dated 2012) can be followed below.

For the assay, the target named is T1, glucokinase (GK) (Homo sapiens, UniProt P35557).
T1 construct: I.D. No. 1 corresponds to residues 12-465 of glucokinase; made in house; host or cells: E. coli DH10b-T1r
T1 sequence (P35557 with tags, fused parts or gaps isoform P35557-2): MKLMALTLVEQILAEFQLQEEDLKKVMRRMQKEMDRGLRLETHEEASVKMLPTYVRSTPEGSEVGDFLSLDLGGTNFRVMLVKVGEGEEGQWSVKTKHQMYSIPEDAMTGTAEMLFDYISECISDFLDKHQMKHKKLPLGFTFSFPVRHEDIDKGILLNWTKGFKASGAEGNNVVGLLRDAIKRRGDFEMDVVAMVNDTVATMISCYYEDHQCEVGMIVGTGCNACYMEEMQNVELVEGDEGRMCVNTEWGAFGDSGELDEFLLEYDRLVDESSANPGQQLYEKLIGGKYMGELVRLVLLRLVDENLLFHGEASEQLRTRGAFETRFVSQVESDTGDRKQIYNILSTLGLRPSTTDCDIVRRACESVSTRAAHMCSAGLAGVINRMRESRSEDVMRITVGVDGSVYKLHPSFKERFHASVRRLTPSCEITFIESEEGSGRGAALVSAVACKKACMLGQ
The assay is described as follows: enzymatic glucokinase activity assay (ATP consumption, KinaseGlo luminescence). The format is biochemical. Particulars: recombinant GK residues 12-465; 5 μM ATP, 5 mM Glucose; Kact = concentration that displays 50% of the maximal increase in GK activity; read-out: pKact. The method in brief: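 Recombinant human glucokinase expressed in E. coli was run in 25 mM Hepes pH 7.2 with 10 mM MgCl2, 1 mM DTT, 5 μM ATP, 5 mM glucose and 2% DMSO for 60 min at room temperature. Remaining ATP was read by KinaseGlo luminescence; pKact came from non-linear curve fits.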
(Kinase-Glo measures the ATP left after a reaction by luminescence.)

Molecules are shown by their SMILES. Counter-ions that a name gives are not always drawn.

As for `Cn1ccc(NC(=O)[C@H](CC2CCOCC2)n2ccc(S(=O)(=O)C3CC3)cc2=O)n1` [Example 74, (S)-2-(4-(cyclopropylsulfonyl)-2-oxopyridin-1(2H)-yl)-N-(1-methyl-1H-pyrazol-3-yl)-3-(tetrahydro-2H-pyran-4-yl)propanamide], the EC50 lay within 1.58 to 15.8 µM. In the case of `Cc1cc(N2CCOCC2)cc(=O)n1[C@H](CC1CCCCC1)C(=O)Nc1nccs1` (stereo in doubt) [Example 79, 3-cyclohexyl-2-(6-methyl-4-morpholino-2-oxopyridin-1(2H)-yl)-N-(thiazol-2-yl)propanamide], the EC50 is greater than 15.8 µM. As to `COc1ccc2nc(NC(=O)[C@@H](CC3CCOCC3)n3c(C)cc(S(=O)(=O)c4ccoc4C)cc3=O)sc2n1` [Example 63, (R)-N-(5-methoxythiazolo[5,4-b]pyridin-2-yl)-2-(6-methyl-4-(2-methylfuran-3-ylsulfonyl)-2-oxopyridin-1(2H)-yl)-3-(tetrahydro-2H-pyran-4-yl)propanamide], the EC50 was greater than 15.8 µM.

`O=C(Nc1nc2ccc(O)cc2s1)C(CC1CCOCC1)n1ccc(S(=O)(=O)C2CC2)cc1=O` (stereo not shown) [Example 84, 2-(4-(cyclopropylsulfonyl)-2-oxopyridin-1(2H)-yl)-N-(6-hydroxybenzo[d]thiazol-2-yl)-3-(tetrahydro-2H-pyran-4-yl)propanamide]: the EC50 is greater than 15.8 µM. In the case of `Cc1cc(S(=O)(=O)C2CCCC2)cc(=O)n1C(CCC(C)C)C(=O)Nc1nccs1` (stereo not shown) [Example 19, 2-(4-(cyclopentylsulfonyl)-6-methyl-2-oxopyridin-1(2H)-yl)-5-methyl-N-(thiazol-2-yl)hexanamide], the EC50 lay in the range of 1.58 to 15.8 µM.

For `O=C(Nc1ncc(Cl)s1)[C@@H](CC1CCOCC1)n1cc(Cl)c(S(=O)(=O)C2CC2)cc1=O` [Example 195, (R)-2-(5-chloro-4-(cyclopropylsulfonyl)-2-oxopyridin-1(2H)-yl)-N-(5-chlorothiazol-2-yl)-3-(tetrahydro-2H-pyran-4-yl)propanamide], the EC50 is greater than 15.8 µM. The figure for `NC(=O)c1ccc(NC(=O)[C@H](CC2CCOCC2)n2ccc(S(=O)(=O)C3CCCC3)cc2=O)nc1` [Example 46, (S)-6-(2-(4-(cyclopentylsulfonyl)-2-oxopyridin-1(2H)-yl)-3-(tetrahydro-2H-pyran-4-yl)propanamido)nicotinamide] is less than 1.58 µM; for `O=C(Nc1ncc(Cl)s1)[C@H](CC1CCOCC1)n1ccc(S(=O)(=O)C2CCCC2)cc1=O` [Example 32, (S)-N-(5-chlorothiazol-2-yl)-2-(4-(cyclopentylsulfonyl)-2-oxopyridin-1(2H)-yl)-3-(tetrahydro-2H-pyran-4-yl)propanamide] it is less than 1.58 µM; for `COc1ccc2nc(NC(=O)[C@H](CC3CCOCC3)n3ccc(S(=O)(=O)C4CCCC4)cc3=O)sc2n1` [Example 59, (S)-2-(4-(cyclopentylsulfonyl)-2-oxopyridin-1(2H)-yl)-N-(5-methoxythiazolo[5,4-b]pyridin-2-yl)-3-(tetrahydro-2H-pyran-4-yl)propanamide] it is less than 1.58 µM. Take `Cc1cc(-c2ccc(C#N)cc2)cc(=O)n1[C@@H](CC1CCCCC1)C(=O)Nc1nccs1` [Example 98, (S)-2-(4-(4-cyanophenyl)-6-methyl-2-oxopyridin-1(2H)-yl)-3-cyclohexyl-N-(thiazol-2-yl)propanamide]: the EC50 was 1.58 to 15.8 µM.

`COc1ccc2nc(NC(=O)[C@@H](CC3CCCCC3)n3c(C)cc(S(=O)(=O)C4CC4)cc3=O)sc2n1` [Example 122, (R)-3-cyclohexyl-2-(4-(cyclopropylsulfonyl)-6-methyl-2-oxopyridin-1(2H)-yl)-N-(5-methoxythiazolo[5,4-b]pyridin-2-yl)propanamide]: the EC50 lay in the range of 1.58 to 15.8 µM. The figure for `CS(=O)(=O)c1ccn([C@H](CC2CCOCC2)C(=O)Nc2ncc(Cl)s2)c(=O)c1` [Example 22, (R)-N-(5-chlorothiazol-2-yl)-2-(4-(methylsulfonyl)-2-oxopyridin-1(2H)-yl)-3-(tetrahydro-2H-pyran-4-yl)propanamide] is greater than 15.8 µM; for `COc1ccc2nc(NC(=O)[C@H](CC3CCCCC3)n3ccc(S(=O)(=O)C4CC4)cc3=O)sc2n1` [Example 76, (S)-3-cyclohexyl-2-(4-(cyclopropylsulfonyl)-2-oxopyridin-1(2H)-yl)-N-(5-methoxythiazolo[5,4-b]pyridin-2-yl)propanamide] it is less than 1.58 µM; for `Cc1cc(S(=O)(=O)C2CC2)c(N)c(=O)n1[C@@H](CC1CCCC1)C(=O)Nc1ncc(F)s1` [Example 155, (S)-2-(3-amino-4-(cyclopropylsulfonyl)-6-methyl-2-oxopyridin-1(2H)-yl)-3-cyclopentyl-N-(5-fluorothiazol2-yl)propanamide] it is 1.58 to 15.8 µM. For `Cc1cc(-c2ccoc2)cc(=O)n1[C@@H](CC1CCCCC1)C(=O)Nc1nccs1` [Example 99, (S)-3-cyclohexyl-2-(4-(furan-3-yl)-6-methyl-2-oxopyridin-1(2H)-yl)-N-(thiazol-2-yl)propanamide], the EC50 was greater than 15.8 µM. Turning to `O=C(Nc1ncc(Cl)s1)C(CC1CCCCC1)n1ccc(C(=O)N2CCCC2)cc1=O` (stereo not shown) [Example 129, N-(5-chlorothiazol-2-yl)-3-cyclohexyl-2-(2-oxo-4-(pyrrolidine-1-carbonyl)pyridin-1(2H)-yl)propanamide], the EC50 fell in the range of 1.58 to 15.8 µM.

For the compound `Cc1cc(S(=O)(=O)C2CCS(=O)(=O)CC2)cc(=O)n1C(CC1CCCCC1)C(=O)Nc1ncc(F)s1` (stereo not shown) [Example 161, N-(5-fluorothiazol-2-yl)-2-(4-(1,1-dioxotetrahydrothiopyran-4-ylsulfonyl)-6-methyl-2-oxopyridin-1(2H)-yl)-3-cyclohexyipropanamide], the EC50 was in the range of 1.58 to 15.8 µM. The figure for `Cc1cc(S(=O)(=O)C2CCCC2)cc(=O)n1C(Cc1ccc(O)cc1)C(=O)Nc1nccs1` (stereo not shown) [Example 28, 2-(4-(cyclopentylsulfonyl)-6-methyl-2-oxopyridin-1(2H)-yl)-3-(4-hydroxyphenyl)-N-(thiazol-2-yl)propanamide] is greater than 15.8 µM; for `O=C(Nc1ncc(F)s1)[C@H](CC1CCOCC1)n1cc(Cl)c(S(=O)(=O)C2CC2)cc1=O` [Example 198, (S)-2-(5-chloro-4-(cyclopropylsulfonyl)-2-oxopyridin-1(2H)-yl)-N-(5-fluorothiazol-2-yl)-3-(tetrahydro-2H-pyran-4-yl)propanamide] it is 1.58 to 15.8 µM; for `Cc1cc(-c2cccnc2)cc(=O)n1[C@@H](CC1CCCCC1)C(=O)Nc1nccs1` [Example 100, (S)-3-cyclohexyl-2-(6-methyl-2-oxo-4-(pyridin-3-yl)pyridin-1(2H)-yl)-N-(thiazol-2-yl)propanamide] it is 1.58 to 15.8 µM. The figure for `Cc1cc(S(C)(=O)=O)cc(=O)n1C(CC1CCOCC1)C(=O)Nc1nccs1` (stereo not shown) [Example 7, 2-(6-methyl-4-(methylsulfonyl)-2-oxopyridin-1(2H)-yl)-3-(tetrahydro-2H-pyran-4-yl)-N-(thiazol-2-yl)propanamide trifluoroacetic acid salt] is greater than 15.8 µM. On to `COc1ccc(CC(C(=O)Nc2nccs2)n2c(C)cc(S(=O)(=O)C3CCCC3)cc2=O)cc1` (stereo not shown) [Example 27, 2-(4-(cyclopentylsulfonyl)-6-methyl-2-oxopyridin-1(2H)-yl)-3-(4-methoxyphenyl)-N-(thiazol-2-yl)propanamide], for which the EC50 is greater than 15.8 µM. In the case of `Cc1cc(-c2cn[nH]c2)cc(=O)n1[C@@H](CC1CCCCC1)C(=O)Nc1nccs1` [Example 113, (S)-3-cyclohexyl-2-(6-methyl-2-oxo-4-(1H-pyrazol-4-yl)pyridin-1(2H)-yl)-N-(thiazol-2-yl)propanamide], the EC50 was greater than 15.8 µM. For `O=C(Nc1ncc(Cl)s1)C(CC1CCOCC1)n1cc(Cl)c(S(=O)(=O)C2CC2)cc1=O` (stereo not shown) [Example 179, 2-(5-chloro-4-(cyclopropylsulfonyl)-2-oxopyridin-1(2H)-yl)-N-(5-chlorothiazol-2-yl)-3-(tetrahydro-2H-pyran-4-yl)propanamide], the EC50 fell in the range of 1.58 to 15.8 µM. Turning to `Cc1cc(S(=O)(=O)C2CCOCC2)cc(=O)n1[C@H](CC1CCCC1)C(=O)Nc1ncc(Cl)s1` [Example 192, (R)-N-(5-chlorothiazol-2-yl)-3-cyclopentyl-2-(6-methyl-2-oxo-4-(tetrahydro-2H-pyran-4-ylsulfonyl)pyridin-1(2H)-yl)propanamide], the EC50 is greater than 15.8 µM. The figure for `COc1ccc2nc(NC(=O)C(CC3CCOCC3)n3ccc(N4CC[C@H](O)C4)cc3=O)sc2n1` (stereo partly drawn) [Example 125, 2-(4-((S)-3-hydroxypyrrolidin-1-yl)-2-oxopyridin-1(2H)-yl)-N-(5-methoxythiazolo[5,4-b]pyridin-2-yl)-3-(tetrahydro-2H-pyran-4-yl)propanamide] is greater than 15.8 µM; for `Cc1cc(S(=O)(=O)c2cccc(F)c2)cc(=O)n1C(CC1CCOCC1)C(=O)Nc1ncc(Cl)s1` (stereo not shown) [Example 158, N-(5-chlorothiazol-2-yl)-2-(4-(3-fluorophenylsulfonyl)-6-methyl-2-oxopyridin-1(2H)-yl)-3-(tetrahydro-2H-pyran-4-yl)propanamide] it is less than 1.58 µM. On to `O=C(Nc1ncc(Cl)s1)C(CC1CCOCC1)n1ccc(S(=O)(=O)CC(F)(F)F)cc1=O` (stereo not shown) [Example 146, N-(5-chlorothiazol-2-yl)-2-(2-oxo-4-(2,2,2-trifluoroethylsulfonyl)pyridin-1(2H)-yl)-3-(tetrahydro-2H-pyran-4-yl)propanamide], for which the EC50 is greater than 15.8 µM.
